According to patent US6784185B2, “Pharmaceutically active compounds” (Pfizer Inc., priority 2001, dated 2004):

target: T1, cGMP-specific PDE (PDE5) (Homo sapiens, UniProt O76074); assay: In vitro PDE inhibitory activity, cGMP PDE5; type: biochemical; details: enzyme from human corpus cavernosum tissue or human platelets; low substrate such that IC50≅Ki
T1 construct: obtained from human corpus cavernosum tissue or human platelets; from tissue; host or cells: human corpus cavernosum tissue or human platelets
Procedure: The compounds of the present invention are potent and selective cGMP PDE5 inhibitors. In vitro PDE inhibitory activities against cyclic guanosine 3′,5′-monophosphate (cGMP) and cyclic adenosine 3′,5′-monophosphate (cAMP) phosphodiesterases were determined by measurement of their IC50 values (the concentration of compound required for 50% inhibition of enzyme activity).
The required PDE enzymes were isolated from a variety of sources, including human corpus cavernosum, human platelets, human cardiac ventricle, human skeletal muscle and human and canine retina, essentially by the method of W. J. Thompson and M. M. Appleman (Biochem., 1971, 10, 311). In particular, the cGMP-specific PDE (PDE5) and the cGMP-inhibited cAMP PDE (PDE3) were obtained from human corpus cavernosum tissue or human platelets; the cGMP-stimulated PDE (PDE2) was obtained from human corpus cavernosum or human platelets; the calcium/calmodulin (Ca/CAM)-dependent PDE (PDE1) from human cardiac ventricle; the cAMP-specific PDE (PDE4) from recombinant clone or human skeletal muscle; and the photoreceptor PDE (PDE6) from canine or human retina. Phosphodiesterases 7-11 were generated from full length human recombinant clones transfected into SF9 cells.
Assays were performed either using a modification of the “batch” method of W. J. Thompson et al. (Biochem., 1979, 18, 5228) or using a scintillation proximity assay for the direct detection of AMP/GMP using a modification of the protocol described by Amersham plc under product code TRKQ7090/7100. In summary, the effect of PDE inhibitors was investigated by assaying a fixed amount of enzyme in the presence of varying inhibitor concentrations and low substrate, (cGMP or cAMP in a 3:1 ratio unlabelled to [^3H]-labeled at a conc ˜1/2 Km) such that IC50≅Ki. The final assay volume was made up to 102 μl with assay buffer [20 mM Tris-HCl pH 7.4, 5 mM MgCl2, 1 mg/ml bovine serum albumin]. Reactions were initiated with enzyme, incubated for 30-60 min at 30° C. to give <30% substrate turnover and terminated with 50 μl yttrium silicate SPA beads (containing 3 mM of the respective unlabelled cyclic nucleotide for PDEs 3, 9 and 11). Plates were re-sealed and shaken for 20 min, after which the beads were allowed to settle for 30 min in the dark and then counted on a TopCount plate reader (Packard, Meriden, Conn.). Radioactivity units were converted to % activity of an uninhibited control (100%), plotted against inhibitor concentration and inhibitor IC50 values obtained using the ‘Fit Curve’ Microsoft Excel extension or in-house equivalent.

Q: With CCc1c2nc(-c3cc(C(C)=O)ccc3OCC(C)C)[nH]c(=O)c2nn1C1CN(C2CCC2)C1 [Example 2] as the molecule, how does the IC50 read?
A: Its IC50 is 13.8 nM.

Q: CCCCOc1ccc(C(C)=O)cc1-c1nc2c(CC)n(C3CN(C(C)C)C3)nc2c(=O)[nH]1 [Example 3] was tested. Which IC50 did it give?
A: Its IC50 is 23 nM.

Q: For CCCOc1ccc(C(C)=O)cc1-c1nc2c(CC)n(CC(=O)OC(C)(C)C)nc2c(=O)[nH]1 [Example 6], which IC50 is on record?
A: Its IC50 is 2.2 nM.

Q: Which IC50 does the source give for CCCOc1ccc(C(C)=O)cc1-c1nc2c(CC)n(CCCC(=O)O)nc2c(=O)[nH]1 [Example 12, 4-[5-(5-Acetyl-2-propoxyphenyl)-3-ethyl-7-oxo-6,7-dihydro-2H-pyrazolo[4,3-d]pyrimidin-2-yl]butanoic Acid] here?
A: The IC50 was 1.8 nM.

Q: With CCCOc1ccc(C(C)=O)cc1-c1nc2c(CC)n(CC(=O)N(C)C)nc2c(=O)[nH]1 [Example 13, 2-[5-(5-Acetyl-2-propoxyphenyl)-3-ethyl-7-oxo-6,7-dihydro-2H-pyrazolo[4,3-d]pyrimidin-2-yl]-N,N-dimethylacetamide] as the molecule, how does the IC50 read?
A: Its IC50 is 11.9 nM.
